{"source": "patent US12617835B2", "about": "“Chimeric autoantibody receptor (CAAR) that binds autoantibodies targeting the central nervous system in neurological autoimmune disease” (Deutsches Zentrum für Neurodegenerative Erkrankungen e. V. …, priority 2019, dated 2026)", "key": {"[1]": {"system": "Nalm6 cells with surface-presentation of NR1 autoantibody #003-102", "assay": "In vivo bioluminescence imaging of Nalm6 burden in mice", "conditions": "bioluminescence on day 9 (4 days post-treatment); preliminary data", "experimental": "Nalm6 cells with surface-presentation of NR1 autoantibody and expressing a Luciferase enzyme (e.g. firefly-Luciferase) tagged with a fluorescent protein (e.g. GFP), are injected on day 1 into mice. On day 5, therapeutic CAAR-T cells expressing a CAAR of the present invention or control T cells without CAAR expression are injected. Bioluminescence imaging is conducted regularly, for example at time points 1, 5, 8, 12, 15, 19 and 22 days, to assess therapeutic effect against the Nalm6 cells. […]\nIn order to show therapeutic efficacy in an animal model in vivo, Nalm6 cells with surface-presentation of NR1 autoantibody #003-102 or #008-218 and expressing the Luciferase enzyme firefly-Luciferase (ffluc) tagged with a fluorescent protein (GFP, green fluorescent protein), were injected on day 1 into 16 mice. […] As a read-out of the assay, animal survival, target cell reduction (via in vivo bioluminescence measurements) and serum antibody levels are determined. […]\nThe potential readouts for the assay relate to bioluminescence imaging quantification (for the detection of in vivo killing), quantification of anti-NR1 serum levels by ELISA (for the detection of reduction of circulating antibodies), and postmortem analysis of treated animals (in order to determine off-target toxicity). […]"}, "[2]": {"system": "K562 cells expressing surface NR1-reactive antibodies", "assay": "Cell lysis of K562 target cells (7-AAD, flow cytometry)", "format": "cell-based", "conditions": "E:T ratios 30:1 to 1:1, 4 hours", "experimental": "For quantification of cell killing, target cells were incubated with CAAR T-cells at different Effector: Target (E:T) ratios ranging from 30:1 to 1:1 for 4 hours. Dead cells were stained by 7-AAD and analyzed by flow cytometry.\nTarget K562 cells were incubated with CAAR T-cells at different Effector:Target (E:T) ratios ranging from 30:1 to 1:1."}, "[3]": {"system": "K562 cells expressing NR1-reactive antibodies on their surface", "assay": "Interferon-γ release on co-culture with K562 cells expressing surface NR1-reactive antibodies", "format": "cell-based", "conditions": "50,000 T-cells co-cultured 1:1 with K562 cells, 48 hours", "experimental": "50,000 CAAR T-cells were co-cultured 1:1 with K562 cells expressing NR1-reactive or control antibodies on their surface for 48 hours."}, "[4]": {"system": "Nalm6 target cells expressing NR1-reactive antibody #003-102", "assay": "Luciferase-assay of specific lysis of Nalm6 target cells, with or without Dasatinib", "format": "cell-based", "experimental": "For quantification of cell killing, Nalm6 target cells expressing NR1-reactive antibody #003-102 were incubated with CAAR T-cells at different Effector:Target (E:T) ratios ranging from 1:2 to 8:1 for 18 hours. Percentage of specific lysis was determined by reduction of bioluminescence in a Luciferase-assay.\nResults are depicted in FIG. 10."}}}
{"substance": "ATD-S1-S2-CAAR: T cells transduced with CAAR: CD8 leader/NMDAR ATD-S1-Linker1-S2/Linker2/CD8a TM/CD137 co-stim/CD3z signaling", "values": [{"measurement": "animals with drastic reduction of Nalm6 burden", "setting": "[1]", "result": "5/6"}, {"measurement": "killing of K562 cells expressing surface NR1-reactive antibodies", "setting": "[2]", "result": "dose-dependent killing"}, {"measurement": "release of interferon-γ", "setting": "[3]", "result": "massively released"}, {"measurement": "inactivation of CAAR T cells by Dasatinib", "setting": "[4]; Dasatinib (safety strategy)", "result": "temporarily halted"}, {"measurement": "killing of Nalm6 target cells", "setting": "[4]; E:T ratios 1:2 to 8:1, 18 hours", "result": "dose-dependent killing"}]}
